For 25 compounds, Ki and Kd results are on record in patent publication US20080096906A1, “AMINOMETHYL-2-IMIDAZOLES” (priority 2006, published 2008).

pKd, pKi: −log10 of the molar value.

The target in the experiment is TAAR1 (Mus musculus, UniProt Q923Y8). The experiment can be described thus: Radioligand binding to TAAR1 on membranes of stably transfected HEK293 cells.
Chain of TAAR1 (Q923Y8 whole entry): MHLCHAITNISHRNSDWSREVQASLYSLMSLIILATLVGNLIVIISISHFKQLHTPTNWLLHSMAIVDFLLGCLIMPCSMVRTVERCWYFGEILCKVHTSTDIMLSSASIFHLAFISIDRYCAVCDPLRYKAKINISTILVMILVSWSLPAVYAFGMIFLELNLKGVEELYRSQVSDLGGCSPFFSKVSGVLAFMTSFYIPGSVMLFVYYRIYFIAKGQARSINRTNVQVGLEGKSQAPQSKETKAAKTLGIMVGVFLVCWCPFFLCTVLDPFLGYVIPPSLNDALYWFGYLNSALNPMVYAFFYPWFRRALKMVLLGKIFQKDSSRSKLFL

Method: The ability of the compounds of the present invention to bind to TAAR1 was investigated in accordance with the test given hereinafter.
The Expand High Fidelity PCR System (Roche Diagnostics) was used with 1.5 mM Mg^2+ and purified PCR products were cloned into pCR2.1-TOPO cloning vector (Invitrogen) following the instructions of the manufacturer. PCR products were subcloned into the pIRESneo2 vector (BD Clontech, Palo Alto, Calif.), and expression vectors were sequence verified before introduction in cell lines.
For the generation of stably transfected cell lines HEK293 cells were transfected with the pIRESneo2 expression plasmids containing the TAAR coding sequences (described above) with Lipofectamine 2000 (Invitrogen) according to the instructions of the manufacturer, and 24 hours post transfection the culture medium was supplemented with 1 mg/ml G418 (Sigma, Buchs, Switzerland). After a culture period of about 10 days, clones were isolated, expanded and tested for responsiveness to trace amines (all compounds purchased from Sigma) with the cAMP Biotrak Enzyme immunoassay (EIA) System (Amersham) following the non-acetylation EIA procedure provided by the manufacturer.
Cells at confluence were rinsed with ice-cold phosphate buffered saline without Ca^2+ and Mg^2+ containing 10 mM EDTA and pelleted by centrifugation at 1000 rpm for 5 min at 4° C. The pellet was then washed twice with ice-cold phosphate buffered saline and cell pellet was frozen immediately by immersion in liquid nitrogen and stored until use at −80° C. The cell pellet was then suspended in 20 ml HEPES-NaOH (20 mM), pH 7.4 containing 10 mM EDTA, and homogenized with a Polytron (PT 3000, Kinematica) at 10,000 rpm for 10 seconds. The homogenate was centrifuged at 48,000×g for 30 minutes at 4° C. and the pellet resuspended in 20 ml HEPES-NaOH (20 mM), pH 7.4 containing 0.1 mM EDTA (buffer A), and homogenized with a Polytron at 10,000 rpm for 10 seconds. The homogenate was then centrifuged at 48,000×g for 30 minutes at 4° C. and the pellet resuspended in 20 ml buffer A, and homogenized with a Polytron at 10,000 rpm for 10 seconds. Protein concentration was determined by the method of Pierce (Rockford, Ill.). The homogenate was then centrifuged at 48,000×g for 10 minutes at 4° C., resuspended in HEPES-NaOH (20 mM), pH 7.0 including MgCl2 (10 mM) and CaCl2 (2 ml) (buffer B) at 200 μg protein per ml and homogenized with a Polytron at 10,000 rpm for 10 seconds.
Binding assay was performed at 4° C. in a final volume of 1 ml, and with an incubation time of 30 minutes. […] Non-specific binding was defined as the amount of [^3H]-rac-2-(1,2,3,4-tetrahydro-1-naphthyl)-2-imidazoline bound in the presence of the appropriate unlabelled ligand (10 μM). Competing ligands were tested in a wide range of concentrations (10 pM-30 μM). […] Each experiment was performed in duplicate. All incubations were terminated by rapid filtration through UniFilter-96 plates (Packard Instrument Company) and glass filter GF/C, pre-soaked for at least 2 h in polyethylenimine 0.3%, and using a Filtermate 96 Cell Harvester (Packard Instrument Company). The tubes and filters were then washed 3 times with 1 ml aliquots of cold buffer B. Filters were not dried and soaked in Ultima gold (45 μl/well, Packard Instrument Company) and bound radioactivity was counted by a TopCount Microplate Scintillation Counter (Packard Instrument Company).

With `CC(C)N(Cc1ncc[nH]1)c1cc(Cl)cc(Cl)c1` [Example 37], the pKi is 7.19.
Consider `CC(C)N(Cc1ncc[nH]1)c1cccc(OCc2ccccc2)c1` [Example 41, (3-Benzyloxy-phenyl)-(1H-imidazol-2-ylmethyl)-isopropyl-amine], for which the pKi is 7.68.
`c1ccc(Oc2cccc(NCc3ncc[nH]3)c2)cc1` [Example 61, (1H-Imidazol-2-ylmethyl)-(3-phenoxy-phenyl)-amine] showed a pKi of 7.58.
`COc1cccc(N(C)Cc2ncc[nH]2)c1` [Example 6, (1H-Imidazol-2-ylmethyl)-(3-methoxy-phenyl)-methyl-amine] had a pKi of 7.14.
Regarding `Brc1cccc(NCc2ncc[nH]2)c1` [Example 71, (3-Bromo-phenyl)-(1H-imidazol-2-ylmethyl)-amine], the pKi was 7.00.
The same measure, in the same setting: next, `Clc1ccc(NCc2ncc[nH]2)cc1Cl` [Example K8, (3,4-dichloro-phenyl)-(1H-imidazol-2-ylmethyl)-amine, reference compound]: 7.26; `CC(C)N(Cc1ncc[nH]1)c1cccc(Cc2ccccc2)c1` [Example 45, (3-Benzyl-phenyl)-(1H-imidazol-2-ylmethyl)-isopropyl-amine]: 8.70.
Still for that read-out and setting: as for `CCN(Cc1ncc[nH]1)c1ccc(Cl)c(Cl)c1` [Example 68, (3,4-Dichloro-phenyl)-ethyl-(1H-imidazol-2-ylmethyl)-amine], the figure is 7.48.
Same read-out and setting: as for `CCN(Cc1ncc[nH]1)c1cccc(OCc2ccccc2)c1` [Example 66, (3-Benzyloxy-phenyl)-ethyl-(1H-imidazol-2-ylmethyl)-amine], the figure is 7.58; as for `COc1cc(NCc2ncc[nH]2)ccc1Cl` [Example 64, (4-Chloro-3-methoxy-phenyl)-(1H-imidazol-2-ylmethyl)-amine], 7.59.
Take `Fc1ccc(NCc2ncc[nH]2)cc1F` [Example 73, (3,4-Difluoro-phenyl)-(1H-imidazol-2-ylmethyl)-amine]: the pKi is 7.15.
Still for that read-out and setting: next, `CC(C)N(Cc1ncc[nH]1)c1ccc(F)cc1` [Example 10, (4-Fluoro-phenyl)-(1H-imidazol-2-ylmethyl)-isopropyl-amine]: 7.03; `CCN(Cc1ncc[nH]1)c1cccc(Oc2ccccc2)c1` [Example 65, Ethyl-(1H-imidazol-2-ylmethyl)-(3-phenoxy-phenyl)-amine]: 7.95; `CC(C)N(Cc1ncc[nH]1)c1cccc(Oc2ccc(Cl)cc2)c1` [Example 51, [3-(4-Chloro-phenoxy)-phenyl]-(1H-imidazol-2-ylmethyl)-isopropyl-amine]: 7.09.
Still for that read-out and setting: next, `CCN(Cc1ncc[nH]1)c1cccc(Cl)c1` [Example 30, (3-Chloro-phenyl)-ethyl-(1H-imidazol-2-ylmethyl)-amine]: 7.44; `CC(C)N(Cc1ncc[nH]1)c1cccc(-c2ccccc2)c1` [Example 46, Biphenyl-3-yl-(1H-imidazol-2-ylmethyl)-isopropyl-amine]: 7.11.
On the same count and under the same terms, as for `COCCN(Cc1ncc[nH]1)c1ccccc1` [Example 21, (1H-Imidazol-2-ylmethyl)-(2-methoxy-ethyl)-phenyl-amine], the figure is 7.09; as for `c1ccc(COc2cccc(NCc3ncc[nH]3)c2)cc1` [Example 62, (3-Benzyloxy-phenyl)-(1H-imidazol-2-ylmethyl)-amine], 8.55.
In the case of `c1ccc2c(c1)CCCC2C1=NCCN1` (racemic) [[^3H]-rac-2-(1,2,3,4-tetrahydro-1-naphthyl)-2-imidazoline, reference compound], under “read-out: calculated Kd value of the radioligand, radioligand used at a concentration equal to its Kd, species not stated”, the pKd was 7.22.
`CC(C)N(Cc1ncc[nH]1)c1cccc(Oc2cccnc2)c1` [Example 43, (1H-Imidazol-2-ylmethyl)-isopropyl-[3-(pyridin-3-yloxy)-phenyl]-amine] gave a pKi of 7.60.
`Cc1cccc(N(Cc2ncc[nH]2)C(C)C)c1` [Example 39, (1H-Imidazol-2-ylmethyl)-isopropyl-m-tolyl-amine] gave a pKi of 7.05.
Still for that read-out and setting: as for `CN(Cc1ncc[nH]1)c1cccc(Cl)c1` [Example 2, (3-Chloro-phenyl)-(1H-imidazol-2-ylmethyl)-methyl-amine], the figure is 7.52; as for `CN(Cc1ncc[nH]1)c1ccc(Cl)cc1` [Example 5, (4-Chloro-phenyl)-(1H-imidazol-2-ylmethyl)-methyl-amine], 7.09.
The same measure, in the same setting: next, `Fc1ccc(NCc2ncc[nH]2)cc1Cl` [Example 74, (3-Chloro-4-fluoro-phenyl)-(1H-imidazol-2-ylmethyl)-amine]: 7.08; `CCN(Cc1ncc[nH]1)c1cccc(F)c1` [Example 12, Ethyl-(3-fluoro-phenyl)-(1H-imidazol-2-ylmethyl)-amine]: 7.29.

For orientation: pKi means the negative decadic logarithm of the Ki, by convention in mol/L. As a reminder, the pKd is the negative decadic logarithm of the Kd, by convention in mol/L.
